Reference: patent publication US20120177701A1, “COMPOSITIONS COMPRISING IMMUNOSTIMULATORY NUCLEIC ACIDS AND RELATED METHODS” (priority 2010, published 2012)

What was measured:
human TLR8 = target: T1, human TLR8 (Homo sapiens, UniProt Q9NR97); assay: HEK-Blue hTLR8 NF-kB-inducible SEAP reporter assay (TLR8 activation); assay type: cell-based
T1 construct: host or cells: HEK293 (HEK-Blue hTLR8) with NF-kB-inducible SEAP reporter
T1 sequence (Q9NR97 27-1041): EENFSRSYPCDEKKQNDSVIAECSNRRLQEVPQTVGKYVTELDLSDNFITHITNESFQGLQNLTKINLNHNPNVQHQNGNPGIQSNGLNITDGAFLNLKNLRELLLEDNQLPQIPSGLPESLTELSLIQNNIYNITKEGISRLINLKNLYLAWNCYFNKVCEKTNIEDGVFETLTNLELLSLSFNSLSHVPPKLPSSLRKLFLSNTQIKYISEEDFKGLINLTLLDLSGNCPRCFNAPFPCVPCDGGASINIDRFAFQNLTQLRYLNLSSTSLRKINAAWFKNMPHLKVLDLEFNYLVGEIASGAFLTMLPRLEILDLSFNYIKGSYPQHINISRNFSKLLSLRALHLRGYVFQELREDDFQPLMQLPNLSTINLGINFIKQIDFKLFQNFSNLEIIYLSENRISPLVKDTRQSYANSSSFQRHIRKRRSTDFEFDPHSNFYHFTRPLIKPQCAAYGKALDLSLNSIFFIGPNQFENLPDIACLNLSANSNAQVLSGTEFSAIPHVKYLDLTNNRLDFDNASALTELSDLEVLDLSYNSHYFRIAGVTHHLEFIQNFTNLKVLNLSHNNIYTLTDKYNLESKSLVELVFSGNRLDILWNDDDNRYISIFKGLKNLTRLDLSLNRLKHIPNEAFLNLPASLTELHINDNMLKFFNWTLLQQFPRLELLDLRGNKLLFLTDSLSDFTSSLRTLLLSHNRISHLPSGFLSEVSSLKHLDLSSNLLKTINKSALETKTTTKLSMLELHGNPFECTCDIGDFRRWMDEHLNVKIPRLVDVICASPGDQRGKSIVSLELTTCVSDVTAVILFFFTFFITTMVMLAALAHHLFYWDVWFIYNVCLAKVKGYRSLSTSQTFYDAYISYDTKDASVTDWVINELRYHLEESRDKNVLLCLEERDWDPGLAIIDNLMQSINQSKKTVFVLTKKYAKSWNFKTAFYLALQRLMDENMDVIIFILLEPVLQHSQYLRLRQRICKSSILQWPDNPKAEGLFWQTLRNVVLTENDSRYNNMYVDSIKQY

murine splenocytes = assay: Immune cell activation (CD69 expression, FACS) in murine splenocytes; assay type: cell-based, mouse; conditions: 20 hours; for activation of immune cell populations (CD69 expression) / immune cell activation compared with R848 and control oligonucleotide: 200 nM DOTAP-complexed; for immune cell activation compared with R848 and control oligonucleotide: R848 1 μM; for NKT cell activation (CD69) / T cell activation (CD69) / granulocyte activation (CD69): compared with R848 1 μM
Description: In addition, upon removal of the supernatant at 20 hours post-incubation, the mouse cells were stained for the following cell markers: GR1, F4/80, CD11c, CD220, CD3, Ly49b, and CD69, and analyzed by FACS. Different immune cell populations were distinguished as follows: macrophages (F4/80^+/GR1^−); plasmacytoid dendritic cells or pDC (CD11c^+/CD220^+); B cells (CD220^+/CD11c^−); NK (CD3^−/Ly49b^+); myeloid DC or mDC ([…]); granulocytes (eosinophils) (GR1^+high/F4/80^−); T cells (CD3^+); and NKT cells (CD3^+/Ly49b^+). All immune cell populations were quantified by the expression of CD69 (am early activation marker).

J774 murine macrophages = assay: TNF-α induction in mouse macrophage cell line J774; assay type: cell-based
Description: Induction of TNF-α by macrophages is a hallmark of human TLR8 activation (Forsbach et al., 2008, J. Immunol., 180:3729-38; Ghosh et al., 2007, Int. Immunopharmacol., 7:1111-21; Gorden et al., 2005, J. Immunol., 174:1259-68). […] In the following experiment mouse macrophage cell line, J774, has been transfected by test ribonucleotides as described above for HEK-Blue™ hTLR8 cells (with the exception that 2-10×10^4 cells/well were used) and TNF-α was measured in culture supernatants at 16-20 hours after transfection.

Substance	TLR8 activation (fold increase of SEAP induction over the background), described in words (human TLR8)	activation of immune cell populations (CD69 expression) (murine splenocytes)	immune cell activation compared with R848 and control oligonucleotide (murine splenocytes)	NKT cell activation (CD69) (murine splenocytes; 200 nM)	T cell activation (CD69) (murine splenocytes; 200 nM)	granulocyte activation (CD69) (murine splenocytes; 200 nM)	macrophage activation (CD69) (murine splenocytes; 200 nM, compared with R-0006)	TNF-α induction, described in words (J774 murine macrophages)	B-cell activation (CD69) (murine splenocytes; 200 nM, compared with R-0006)	concentration at which TNF-α induction reached plateau (J774 murine macrophages)
5′-AUUUAUUUUUAAAUUUUUGUGU-3′ (phosphorothioate, further chemistry not given here) [SL-0023, phosphorothioated ribonucleotide completely contained within SL-0005]	even stronger activity than the parental SL-0005 sequence									
5′-UUAUUUUGUUUUUAAUAUUU-3′ (phosphorothioate backbone, further chemistry not given here) [SL-0012]		induced activation in most of the tested immune cell populations	at least comparable to that generated by treatment with 1 μM of R848, and usually exceeded the effects exhibited by the control oligonucleotide R-0006	exceeded the activation observed for R848	exceeded the activation observed for R848	exceeded the activation observed for R848	especially higher than the activation observed for R-0006			
5′-AGAUGUUA--UUGUUU-AAUAUUU-3′ (AGAUGUUAUUGUUUAAUAUUU; phosphorothioate backbone, further chemistry not given here) [SL-0014, phosphorothioated ribonucleotide from SL-0001; dashes signify deleted nucleotides]		induced activation in most of the tested immune cell populations	at least comparable to that generated by treatment with 1 μM of R848, and usually exceeded the effects exhibited by the control oligonucleotide R-0006	exceeded the activation observed for R848	exceeded the activation observed for R848	exceeded the activation observed for R848	especially higher than the activation observed for R-0006			
5′-CUGUGUGAACGAUAGUGCAG-3′ (phosphorothioate, further chemistry not given here) [SL-0019, phosphorothioated ribonucleotide derived from SL-0004]	markedly weaker							weaker than the level of induction observed for the other oligonucleotides		
5′-UUAUUUUGUUUUUAAUAUUUC-3′ (phosphorothioate backbone, further chemistry not given here) [SL-0011]		induced activation in most of the tested immune cell populations	at least comparable to that generated by treatment with 1 μM of R848, and usually exceeded the effects exhibited by the control oligonucleotide R-0006	exceeded the activation observed for R848	exceeded the activation observed for R848	exceeded the activation observed for R848	especially higher than the activation observed for R-0006		especially higher than the activation observed for R-0006	
5′-GUUUAUCUGUGUG----------CAGUUUAAAC-3′ (GUUUAUCUGUGUGCAGUUUAAAC; phosphorothioate, further chemistry not given here) [SL-0020, dashes signify deleted nucleotides]	activity similar or exceeding that of SL-0004							most potent		300 nM
